This is an account of results in paper PMC9923724, “Half sandwich-type osmium, ruthenium, iridium and rhodium complexes with bidentate glycosyl heterocyclic ligands induce cytostasis in platinum-resistant ovarian cancer cells and bacteriostasis in Gram-positive multiresistant bacteria” (Frontiers in Chemistry, 2023).

This data set in a line: Solubility / precipitation observed during testing. Format: physicochemical. The note with it: free ligand in cell assays. The protocol:
In concentrations exceeding 33.3 µM the complexes frequently precipitated. All of the complexes and the free ligand exerted little rapid cytotoxicity in MTT assays, not more than 35% in any of the cell lines assessed in the peak concentration, except for the Os-7 complex with 75% toxicity on ID8 cells (Figure 5; Table 2). […] The complexes were more efficient in ID8 cells as compared to A2780 cells (Figure 5; Table 2). […] On primary non-transformed fibroblasts, used as controls, the complexes exerted negligible toxicity and low cytostatic activity (Figure 5; Table 2). The cytostatic activity was not more than 50% in the peak concentration.

Regarding `CCCCCCCC(=O)OC[C@H]1O[C@@H](n2cc(-c3ccccn3)nn2)[C@H](OC(=O)CCCCCCC)[C@@H](OC(=O)CCCCCCC)[C@@H]1OC(=O)CCCCCCC` [L-6], the “solubility (suitability for testing)” value is “insoluble”.
